Data set [1] in a line: Cytotoxicity on Vero cells by neutral red dye-uptake assay. Conditions: African green monkey, Vero cell monolayers, neutral red dye uptake (Table 1). The format is cell-based. As to the method: The cytotoxic effect of standard PA (purity >98%; kindly obtained from University of Chemistry and Technology Prague, Prague, Czech Republic), PA in combination with ACV (Sigma-Aldrich, Berlin, Germany) as well as standard ACV on Vero cells was assessed using the neutral red dye-uptake assay as previously described with slight modification. Briefly, the test compounds were dissolved in 0.2% dimethyl sulfoxide (DMSO). Further, stock solutions were prepared in deionized water and sterilized at a concentration of 620 μM. Vero cell monolayers cultivated in 96-well microtiter plates with two-fold serial dilutions of the test compounds were incubated for 48 h at 37°C in 5% CO2. After incubation, the morphological alterations of the treated cells were assessed using an inverted optical microscope (Leitz, Wetzlar, Germany) and the maximum non-toxic concentrations (MNTC) were determined. The concentrations of test substances that are necessary to decrease the cell viability by 50% (CC50) were assessed as compared with the untreated control cells. In order to acquire statistically relevant data for final evaluation, the cytotoxicity of test compounds was measured in at least three independent experiments conducted in duplicate.

The next data set deals with HSV-1 strain KOS. Nature of the data set: Anti-HSV-1 plaque reduction assay in infected Vero cells. The data set is classed as cell-based, herpes simplex virus type 1 (HSV-1). The conditions noted are these: for IC50: 72 h; for SI (CC50/IC50): selectivity index, Vero CC50 / HSV-1 IC50. Here is the method:
Vero cells were infected with HSV-1 strain KOS (an ACV-sensitive strain) obtained from MUH, Prague, Czech Republic and propagated in Vero cells. Viral stocks were then titrated based on plaque forming unit (PFU) count by plaque assay as previously described. Viral stocks were stored at −80^◦C for further use.
The inhibitory activity against the replication of HSV-1 was evaluated using a plaque reduction assay as previously described. ACV was used as a reference drug. Briefly, cell monolayers were infected with 100 PFU of HSV-1 in MEM containing 1.5% carboxymethyl cellulose (CMC, Sigma-Aldrich, Berlin, Germany) in the presence or absence of test compounds at different concentrations. Afterward, the cells were subjected to incubation for 72 h at 37 °C, then fixed and stained using naphthol blue-black (Sigma-Aldrich, Berlin, Germany). Subsequently, the plaques were counted. IC50 values (concentrations of test compounds required to decrease the number of plaques by 50%) were determined as compared with untreated control cells. A selectivity index (SI) value was calculated as the ratio CC50/IC50.
(In a plaque reduction assay, fewer plaques than in the control indicate reduced infectivity or spread.)

For a further data set, the target named is T1, HSV-1 DNA polymerase (Human herpesvirus 1, UniProt P04292).
T1 construct: HSV-1 DNA polymerase was extracted from HSV-1-infected Vero cells; made in house; host or cells: Vero cells infected with HSV-1 (KOS strain); virus-encoded native enzyme, purified on DEAE-cellulose and phosphate cellulose columns
T1 sequence (P04292 whole entry): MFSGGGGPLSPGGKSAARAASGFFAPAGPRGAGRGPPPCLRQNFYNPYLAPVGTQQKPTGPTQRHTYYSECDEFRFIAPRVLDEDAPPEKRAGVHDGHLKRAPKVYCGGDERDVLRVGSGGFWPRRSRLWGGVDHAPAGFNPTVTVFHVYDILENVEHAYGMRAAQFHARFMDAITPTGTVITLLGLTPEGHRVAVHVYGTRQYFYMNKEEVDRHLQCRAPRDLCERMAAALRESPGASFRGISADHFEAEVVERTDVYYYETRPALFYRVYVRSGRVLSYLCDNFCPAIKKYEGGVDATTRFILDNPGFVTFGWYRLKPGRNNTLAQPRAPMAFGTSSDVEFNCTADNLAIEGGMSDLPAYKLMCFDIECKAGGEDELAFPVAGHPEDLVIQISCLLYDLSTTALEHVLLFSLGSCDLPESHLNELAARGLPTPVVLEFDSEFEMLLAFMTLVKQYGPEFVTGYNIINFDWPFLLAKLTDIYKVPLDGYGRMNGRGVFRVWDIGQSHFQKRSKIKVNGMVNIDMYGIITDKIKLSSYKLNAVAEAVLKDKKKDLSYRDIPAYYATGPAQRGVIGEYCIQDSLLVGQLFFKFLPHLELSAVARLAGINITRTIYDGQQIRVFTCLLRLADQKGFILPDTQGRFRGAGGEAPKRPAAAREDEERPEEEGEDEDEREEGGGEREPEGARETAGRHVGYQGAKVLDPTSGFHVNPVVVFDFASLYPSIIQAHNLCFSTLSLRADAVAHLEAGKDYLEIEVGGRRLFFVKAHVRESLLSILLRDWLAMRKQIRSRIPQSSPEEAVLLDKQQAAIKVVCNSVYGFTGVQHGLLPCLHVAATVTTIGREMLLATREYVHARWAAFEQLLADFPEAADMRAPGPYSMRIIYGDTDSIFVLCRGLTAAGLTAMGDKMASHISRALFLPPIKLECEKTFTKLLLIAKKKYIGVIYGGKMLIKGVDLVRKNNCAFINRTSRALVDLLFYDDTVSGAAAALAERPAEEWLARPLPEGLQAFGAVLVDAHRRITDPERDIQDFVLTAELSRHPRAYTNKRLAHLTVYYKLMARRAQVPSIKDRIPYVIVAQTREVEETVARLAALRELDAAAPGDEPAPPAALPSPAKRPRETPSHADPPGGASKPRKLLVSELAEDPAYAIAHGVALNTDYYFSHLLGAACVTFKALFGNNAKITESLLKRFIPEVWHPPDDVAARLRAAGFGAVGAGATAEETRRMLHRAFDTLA
In words: Radiolabeled nucleotide-based HSV-1 DNA polymerase inhibition assay. Conditions: for type of inhibition: ascertained with Cheng–Prusoff equation; for IC50: 37 °C, 30 min; for Ki: calculated by Cheng–Prusoff equation. The data set is classed as biochemical. Here is the method: HSV-1 DNA polymerase was extracted from HSV-1-infected Vero cells following the procedure as previously designated. Briefly, Vero cells were infected with HSV-1 (KOS strain) at a multiplicity of infection (MOI) equal to 5.0 for 12 h. Afterward, the infected cells were lysed with a buffer containing 0.25 M potassium phosphate (pH = 7.5), 10 mM 2-mercaptoethanol (2-ME), 1mM EDTA, 0.5% Triton X-100, 0.5 mM phenylmethane sulfonylfluoride (PMSF), and 20% glycerol, and subsequently sonicated and centrifuged at 10,000× g for 10 min at 4 °C. The resulting supernatant was additionally centrifuged at 100,000× g for 90 min at 4 °C and the supernatant was dialyzed against 10 mM potassium phosphate (pH = 7.5) with 10 mM 2-ME, 1mM EDTA, and 20% glycerol. Then, the obtained material was eluted in two ion-exchange chromatography columns (DEAE-cellulose and phosphate cellulose) (Sigma-Aldrich, Prague, Czech Republic) supplemented with potassium phosphate ([…]) as previously described.
Extracted HSV-1 DNA polymerase was evaluated for its purity and possible contamination with cellular enzymes such as type B DNA polymerase (α and δ polymerases) using polyclonal antibodies raised against these cellular enzymes following the procedure as previously described. The confirmation of the purity of HSV-1 DNA polymerase was achieved by using a kinetic assay in the presence or absence of ammonium sulfate (100 mM; an inhibitor of possible contaminant cellular polymerases) following the previously reported protocol.
A radiolabeled nucleotide-based assay was used to evaluate the inhibitory properties of PA along with the standard drugs aphidicolin (a known competitive inhibitor of HSV-1 DNA polymerase with respect to dTTP incorporation; purchased from Sigma-Aldrich, Prague, Czech Republic with purity ≥98%) and ACV triphosphate (ACV-TP) (a known competitive inhibitor of HSV-1 DNA polymerase with respect to dGTP incorporation; obtained from Sierra Bioresearch (Tucson, AZ, USA) with purity >98%) against HSV-1 DNA polymerase based on the incorporation of dTTP as a substrate with some modifications. Briefly, the enzyme assay was performed following the first-order kinetics conditions, where the enzymatic reaction initiated by pre-incubating 3 U/mL of HSV-1 DNA polymerase with a mixture containing 50 mM Tris-HCl (pH = 8), MgCl2 (8 mM), DTT (0.5 mM), bovine serum albumin (0.5 µg/mL), ammonium sulfate (100 mM; an inhibitor of possible contaminant cellular polymerases), 100 µM of each nucleotide (dATP, dGTP, dCTP, and [^3H]-dTTP—0.5 µCi/nmol) (obtained from MUH, Prague, Czech Republic) and activated salmon-sperm DNA (12 µg/mL). […] [^3H]-dGTP—0.5 µCi/nmol (obtained from MUH, Prague, Czech Republic) was used when the enzymatic assay was performed with ACV-TP.
The obtained mixture was further incubated with the test compounds (at concentrations ranging from 0.1 to 3 µM) at 37 °C for 30 min and afterward, the reaction was stopped by adding trichloroacetic acid (TCA; 10%). The resulting radioactivity was adsorbed over GF/C fiberglass membranes (Whatman; Sigma-Aldrich, Berlin, Germany) and counted by liquid scintillation (Tri-Carb 2600, Packard Inc., Downers Grove, IL, USA). All measurements were conducted in triplicate and IC50 values were calculated by nonlinear regression. Ki values (inhibition constant; concentration required to produce half maximum inhibition) were calculated using the Cheng–Prusoff equation as previously described.

Like-named read-outs stand apart in the source and are kept apart here.

Here are results for three compounds from paper PMC6720901, “Psoromic Acid, a Lichen-Derived Molecule, Inhibits the Replication of HSV-1 and HSV-2, and Inactivates HSV-1 DNA Polymerase: Shedding Light on Antiherpetic Properties” (Molecules, 2019).

Usually CC50 stands for the concentration that lowers cell viability or growth by half. One may read the IC50 as the concentration needed to halve the response being measured. For `Nc1nc2c(ncn2COCCO)c(=O)[nH]1` [ACV, acyclovir], in data set [1], the CC50 at 48 h is over 310000 nM. In addition, the half-inhibitory concentration (IC50) with HSV-1 strain KOS (Human alphaherpesvirus 1, HSV-1 replication, plaque reduction, Vero cells, read-out: IC50) amounted to 2600 ± 380 nM. Moreover, in the data set on HSV-1 strain KOS, the “SI (CC50/IC50)” value is listed as over 119.2.

The Ki is the dissociation constant of the complex between target and ligand, obtained from inhibition or displacement. For the compound `Nc1nc2c(ncn2COCCOP(=O)(O)OP(=O)(O)OP(=O)(O)O)c(=O)[nH]1` [ACV-TP, acyclovir triphosphate], on HSV-1 DNA polymerase, the type of inhibition entry was “competitive inhibitors”. At HSV-1 DNA polymerase (with respect to dGTP incorporation ([3H]-dGTP)), the IC50 is 900 ± 630 nM. The Ki on HSV-1 DNA polymerase (with respect to dGTP incorporation) is 500 ± 340 nM.

Take `COc1cc(C(=O)O)c2c(c1C)OC(=O)c1c(C)cc(O)c(C=O)c1O2` [PA, Psoromic acid]: on HSV-1 DNA polymerase, the type of inhibition entry is given as “competitive inhibitors”. Further, the IC50 against HSV-1 DNA polymerase (with respect to dTTP incorporation ([3H]-dTTP)) turned out to be 700 ± 510 nM; in the data set with HSV-1 strain KOS (Human alphaherpesvirus 1, Vero), 1900 ± 420 nM. Also, the Ki at HSV-1 DNA polymerase (with respect to dTTP incorporation) is 300 ± 420 nM. Besides, the CC50 at 48 h in data set [1] is over 310000 nM. For the same compound, the “SI (CC50/IC50)” value in the data set with HSV-1 strain KOS is on record as over 163.2.
